Tests used:
[1] = Drug stabilization effect (sequestering agent combination); design: key to Sunlight exposure (80 MJ) Appearance: A: No change; B: No almost change; C: Yes change; conditions: sequestering agent 0.03 alone, photostabilizer 0, amounts wt %
Method: Next, when combined with a sequestering agent, the photostabilization effect and appearance change of a composition for each drug was studied by the following evaluation formulation.
Each test sample was prepared. Appearance change of the samples exposed to sunlight (around 80 MJ) was observed (visual evaluation). Also, residual yield of a drug was measured by liquid chromatography.

[2] = Perfume stabilization effect (sequestering agent combination); design: key to Sunlight exposure (80 MJ) Smell evaluation: A: No change; B: No almost change; C: Yes change; conditions: sequestering agent 0.03 alone, photostabilizer 0, amounts wt %
Method: Next, for combinations with sequestering agent, photostabilization effect for each perfume was studied by the following evaluation formulation.
Each test sample was prepared. Smell change of samples exposed to sunlight (80 MJ) was observed (judgement by perfumier).

[3] = Pigment stabilization effect (sequestering agent combination); design: key to Sunlight exposure (80 MJ) Appearance: A: No change; B: No almost change; C: Yes change; key to Sunlight exposure (80 MJ) ΔE: color difference ΔE in Lab space vs. color before sunlight exposure; conditions: photostabilizer 0, amounts wt %
Method: First of all, the photostabilization effect and appearance changes of a composition for each pigment were studied by the following evaluation formulation.
Each test sample was prepared. Observation of appearance changes (visual evaluation) and measurement of color difference (ΔE) were carried out for samples exposed to sunlight (around 80 MJ).
Color difference was measured by Lab coordinate system with spectrophotometer. Color difference was calculated based on the color before sunlight exposure. Namely, from the measured value (L1,a1,b1) before sunlight exposure, color difference (ΔE) was calculated by following formula.

[4] = drug 2-o-α-α-glucopyranosyl-L-ascorbic acid 2.0
[5] = drug Dibutylhydroxytoluene 0.01
[6] = drug Dipotassium glycyrrhizinate 0.05
[7] = colorant Blue No. 1 0.0001, sequestering agent 0.03 alone
[8] = colorant Green No. 3 0.0001, sequestering agent 0.03 alone
[9] = colorant Red No. 106 0.0001, sequestering agent 0.02 alone
[10] = colorant Red No. 213 0.0001, sequestering agent 0.05 alone
[11] = colorant Red No. 227 0.0001, sequestering agent 0.02 alone
[12] = colorant Red No. 401 0.001, sequestering agent 0.1 alone
[13] = colorant Yellow No. 5 0.001, sequestering agent 0.02 alone
[14] = colorant Yellow No. 203 0.001, sequestering agent 0.02 alone
[15] = colorants Red No. 227 0.0001 + Yellow No. 203 0.0001, sequestering agent 0.02 alone
[16] = colorants Red No. 401 0.0001 + Green No. 3 0.00001, sequestering agent 0.03 alone
[17] = colorants Yellow No. 203 0.0001 + Yellow No. 5 0.0001, sequestering agent 0.01 alone

Substance: Sodium metaphosphate
- Sunlight exposure (80 MJ) Appearance [1, 4]: C
- Sunlight exposure (80 MJ) Residual yield [%] [1, 4]: 85.2%
- Sunlight exposure (80 MJ) Appearance [1, 5]: C
- Sunlight exposure (80 MJ) Residual yield [%] [1, 5]: 54.7%
- Sunlight exposure (80 MJ) Appearance [1, 6]: B
- Sunlight exposure (80 MJ) Residual yield [%] [1, 6]: 85.8%
- Sunlight exposure (80 MJ) Smell evaluation ([2]; natural perfume Jasmine oil 0.03): C
- Sunlight exposure (80 MJ) Smell evaluation ([2]; natural perfume Musk oil 0.03): C
- Sunlight exposure (80 MJ) Smell evaluation ([2]; natural perfume Orange oil 0.03): C
- Sunlight exposure (80 MJ) Smell evaluation ([2]; perfume Fruity 0.03): C
- Sunlight exposure (80 MJ) Smell evaluation ([2]; perfume Muguet 0.03): C
- Sunlight exposure (80 MJ) Smell evaluation ([2]; synthetic perfume Lilial 0.03): C
- Sunlight exposure (80 MJ) Smell evaluation ([2]; synthetic perfume Oranthiol 0.03): C
- Sunlight exposure (80 MJ) Appearance [3, 7]: C
- Sunlight exposure (80 MJ) ΔE [3, 7]: 8.02
- Sunlight exposure (80 MJ) Appearance [3, 8]: C
- Sunlight exposure (80 MJ) ΔE [3, 8]: 2.02
- Sunlight exposure (80 MJ) Appearance [3, 9]: C
- Sunlight exposure (80 MJ) ΔE [3, 9]: 2.88
- Sunlight exposure (80 MJ) Appearance [3, 10]: C
- Sunlight exposure (80 MJ) ΔE [3, 10]: 3.71
- Sunlight exposure (80 MJ) Appearance [3, 11]: C
- Sunlight exposure (80 MJ) ΔE [3, 11]: 1.37
- Sunlight exposure (80 MJ) Appearance [3, 12]: C
- Sunlight exposure (80 MJ) ΔE [3, 12]: 7.07
- Sunlight exposure (80 MJ) Appearance [3, 13]: C
- Sunlight exposure (80 MJ) ΔE [3, 13]: 1.77
- Sunlight exposure (80 MJ) Appearance [3, 14]: C
- Sunlight exposure (80 MJ) ΔE [3, 14]: 2.74
- Sunlight exposure (80 MJ) Appearance [3, 15]: C
- Sunlight exposure (80 MJ) ΔE [3, 15]: 3.01
- Sunlight exposure (80 MJ) Appearance [3, 16]: C
- Sunlight exposure (80 MJ) ΔE [3, 16]: 4.23
- Sunlight exposure (80 MJ) Appearance [3, 17]: C
- Sunlight exposure (80 MJ) ΔE [3, 17]: 1.44

From US6395896B2, “Pyridazine derivatives, manufacturing method and related composition” (Shiseido Co., Ltd., priority 1999, dated 2002)
